The record followed here is EP4741386A1 (Jiangsu Yahong Meditech Co., Ltd., priority 2023, dated 2025).

This assay deals with T1, Recombinant human His6-USP1/His6-UAF1 complex protein (Homo sapiens, UniProt O94782).
T1 construct: His6; purchased R&D E-568-050
In words: In vitro inhibitory activity against USP1 (Ubiquitin Rhodamine 110 fluorescence detection, 384-well plate). It is filed as biochemical. Particulars: Ub-Rho substrate, 1 hour pre-incubation, read after 30 minutes. The protocol:
Test Example 1: In vitro inhibitory activity against USP1 […]
Experimental object: to screen compounds with inhibitory activity against USP1 […] by a fluorescence detection method, using a 384-well plate.
Experimental materials: Recombinant human His6-USP1/His6-UAF1 complex protein (R&D, Cat. No.: E-568-050), Ubiquitin Rhodamine 110 protein (Ub-Rho) (R&D, Cat. No.: U-555-050), 384-well plate (Perkin Elmer, Cat. No.: 6007279); all compounds were dissolved in 100% DMSO to obtain 50 mM stock solutions.
• 1) Preparation of 1 × assay buffer: 1 × assay buffer (modified Tris buffer) was prepared; • 2) Dilution of compounds: the compounds were transferred to an assay plate via Echo.

T1 sequence (O94782 whole entry): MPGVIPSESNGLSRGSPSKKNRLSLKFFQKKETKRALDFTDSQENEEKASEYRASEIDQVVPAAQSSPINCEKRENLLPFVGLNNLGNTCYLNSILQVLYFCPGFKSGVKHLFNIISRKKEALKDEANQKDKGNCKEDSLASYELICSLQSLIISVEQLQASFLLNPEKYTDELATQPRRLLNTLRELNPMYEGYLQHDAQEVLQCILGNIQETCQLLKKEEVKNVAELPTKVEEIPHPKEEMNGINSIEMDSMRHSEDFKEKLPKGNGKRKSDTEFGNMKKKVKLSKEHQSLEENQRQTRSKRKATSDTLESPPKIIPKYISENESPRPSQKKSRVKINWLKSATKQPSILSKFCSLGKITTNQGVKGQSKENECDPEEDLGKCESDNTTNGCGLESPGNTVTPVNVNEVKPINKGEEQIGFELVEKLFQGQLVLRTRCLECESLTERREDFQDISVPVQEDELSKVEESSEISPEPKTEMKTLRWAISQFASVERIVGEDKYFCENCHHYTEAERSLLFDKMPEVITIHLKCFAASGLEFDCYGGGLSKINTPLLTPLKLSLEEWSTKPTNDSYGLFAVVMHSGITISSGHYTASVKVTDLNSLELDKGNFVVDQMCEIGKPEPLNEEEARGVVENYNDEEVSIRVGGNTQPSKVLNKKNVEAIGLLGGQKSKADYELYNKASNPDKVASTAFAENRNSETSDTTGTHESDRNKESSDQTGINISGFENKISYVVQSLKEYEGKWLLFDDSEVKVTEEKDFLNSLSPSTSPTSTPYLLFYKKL
T1 sequence (Q8TAF3 whole entry partner): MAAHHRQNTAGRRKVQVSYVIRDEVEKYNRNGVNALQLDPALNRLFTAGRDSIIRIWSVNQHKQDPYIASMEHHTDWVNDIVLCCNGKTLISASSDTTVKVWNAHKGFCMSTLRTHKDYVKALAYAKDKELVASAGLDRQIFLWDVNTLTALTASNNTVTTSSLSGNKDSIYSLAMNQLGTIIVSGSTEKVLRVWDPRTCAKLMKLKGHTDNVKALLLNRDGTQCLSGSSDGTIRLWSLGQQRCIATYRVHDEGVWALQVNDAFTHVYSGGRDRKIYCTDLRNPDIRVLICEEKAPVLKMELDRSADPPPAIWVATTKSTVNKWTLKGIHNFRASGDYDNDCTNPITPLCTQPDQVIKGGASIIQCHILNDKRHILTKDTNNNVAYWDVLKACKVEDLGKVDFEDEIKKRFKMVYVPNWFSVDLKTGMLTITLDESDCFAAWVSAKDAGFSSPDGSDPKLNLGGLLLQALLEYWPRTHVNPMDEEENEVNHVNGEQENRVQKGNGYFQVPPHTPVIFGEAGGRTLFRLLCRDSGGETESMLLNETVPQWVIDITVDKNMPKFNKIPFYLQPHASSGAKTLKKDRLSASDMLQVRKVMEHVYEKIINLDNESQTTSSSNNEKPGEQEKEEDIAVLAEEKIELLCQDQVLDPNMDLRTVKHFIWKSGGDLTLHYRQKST

On to `COc1cnc(-c2ccccc2C(C)C)nc1N(C)Cc1ccc(-c2ccccn2)cc1` [Example 1, 2-(2-isopropylphenyl)-5-methoxy-N-methyl-N-(4-(pyridin-2-yl)benzyl)pyrimidin-4-amine], for which the IC50 (in general, the point on the concentration scale where inhibition reaches its midpoint) was determined as 26 nM.
Turning to `COc1ncnc(C2CC2)c1-c1ncc2c(n1)N(Cc1ccc(-c3ccccn3)cc1)CCO2` [Example 9, 2-(4-Cyclopropyl-6-methoxypyrimidin-5-yl)-8-(4-(pyridin-2-yl)benzyl)-7,8-dihydro-6H-pyrimido[5,4-b][1,4]oxazine], the IC50 was 35 nM.
With `COc1ncnc(C2CC2)c1-c1ncc2c(n1)N(CC1CCN(c3ccccn3)CC1)CCO2` [Example 10, 2-(4-Cyclopropyl-6-methoxypyrimidin-5-yl)-8-((1-(pyridin-2-yl)piperidin-4-yl)methyl)-7,8-dihydro-6H-pyrimido[5,4-b][1,4]oxazine], the IC50 worked out at 564 nM.
In the case of `CC(C)c1ccccc1-c1ncc2c(n1)N(CC1CCC(c3nc(C(F)(F)F)cn3C)CC1)CCO2` [Example 13, 2-(2-Isopropylphenyl)-8-(((1R,4R)-4-(1-methyl-4-(trifluoromethyl)-1H-imidazol-2-yl)cyclohexyl)methyl)-7,8-dihydro-6H-pyrimido [5,4-b][1,4] oxazine], the IC50 worked out at 1.9 nM.
For `CC(C)c1ccccc1-c1ncc2c(n1)N(C[C@H]1CC[C@@H](c3nc(C(F)(F)F)cn3C)CC1)CCO2` [Example 14, 2-(2-Isopropylphenyl)-8-(((1s,4s)-4-(1-methyl-4-(trifluoromethyl)-1H-imidazol-2-yl)cyclohexyl)methyl)-7,8-dihydro-6H-pyrimido[5,4-b][1,4] oxazine], the half-maximal inhibitory concentration (IC50) amounted to 60 nM.
As to `CC(C)c1ccccc1-c1ncc(C(F)(F)F)c(NCc2ccc(-c3ccccn3)cc2)n1` [Example 16, 2-(2-Isopropylphenyl)-N-(4-(pyridin-2-yl)benzyl)-5-(trifluoromethyl)pyrimidin-4-amine], the IC50 was 30.6 nM.
Regarding `CC(C)c1ccccc1-c1ncc2c(n1)N(CC1CCN(c3nc(C(F)(F)F)cn3C)CC1)C(=O)CO2` [Example 24, 2-(2-Isopropylphenyl)-8-((1-(1-methyl-4-(trifluoromethyl)-1H-imidazol-2-yl)piperidin-4-yl)methyl)-6H-pyrimido[5,4-b][1,4]oxazin-7(8H)-one], the IC50 stood at 8.8 nM.
Regarding `CC(C)c1ccccc1-c1ncc(C(F)(F)F)c(NCC2CCN(c3nc(C(F)(F)F)cn3C)CC2)n1` [Example 25, 2-(2-Isopropylphenyl)-N-((1-(1-methyl-4-(trifluoromethyl)-1H-imidazol-2-yl)piperidin-4-yl)methyl)-5-(trifluoromethyl)pyrimidin-4-amine], the IC50 is 3.7 nM.
As to `COc1cnc(-c2c(OC)ncnc2C2CC2)nc1NCc1ccc(-c2nc(C(F)(F)F)cn2C)cc1` [Example 29, 4'-Cyclopropyl-5,6'-dimethoxy-N-(4-(1-methyl-4-(trifluoromethyl)-1H-imidazol-2-yl)benzyl)-[2,5'-bipyrimidin]-4-amine], the IC50 was 4.8 nM.
Regarding `COc1ncnc(C2CC2)c1-c1ncc2c(n1)N(CC1CCN(c3nc(C(F)(F)F)cn3C)CC1)C(=O)CO2` [Example 30, 2-(4-Cyclopropyl-6-methoxypyrimidin-5-yl)-8-((1-(1-methyl-4-(trifluoromethyl)-1H-imidazol-2-yl)piperidin-4-yl)methyl)-6H-pyrimido[5,4-b][1,4]oxazin-7(8H)-one], the IC50 is 37 nM.
For the compound `COc1ncnc(C2CC2)c1-c1nc(NCc2ccc(-c3ccccn3)cc2)c2[nH]ccc2n1` [Example 37, 2-(4-Cyclopropyl-6-methoxypyrimidin-5-yl)-N-(4-(pyridin-2-yl)benzyl)-5H-pyrrolo[3,2-d]pyrimidin-4-amine], the IC50 stood at 51 nM.
As to `COc1cnc(-c2ccccc2C(C)C)nc1NCc1ccc2c(c1)CN(C1CCC(=O)NC1=O)C2=O` (stereo not drawn) [Example 41, 3-(5-(((2-(2-Isopropylphenyl)-5-methoxypyrimidin-4-yl)amino)methyl)-1-oxoisoindolin-2-yl)piperidine-2,6-dione], the IC50 is 1260 nM.
With `COc1cnc(-c2ccccc2C(C)C)nc1NCc1ccc(OCc2ccccn2)cc1` [Example 67, 2-(2-Isopropylphenyl)-5-methoxy-N-(4-(pyridin-2-ylmethoxy)benzyl)pyrimidin-4-amine] the figure was 5.3 nM; with `CC(C)Oc1cnc(-c2ccccc2C(C)C)nc1NCC12CCC(c3ccc(C(F)(F)F)cn3)(CC1)CC2` [Example 74, 5-Isopropoxy-2-(2-isopropylphenyl)-N-((4-(5-(trifluoromethyl)pyridin-2-yl)bicyclo[2.2.2]octan-1-yl)methyl)pyrimidin-4-amine], 873 nM.
In the case of `CC(C)c1ccccc1-c1ncc(C(F)(F)F)c(NCC2CCN(c3ccccn3)CC2)n1` [Example 76, 2-(2-Isopropylphenyl)-N-((1-(pyridin-2-yl)piperidin-4-yl)methyl)-5-(trifluoromethyl)pyrimidin-4-amine] it was 30.1 nM.
As for `CC(C)c1ccccc1-c1nc(NCc2ccc3c(c2)CCN(C)C3=O)c2occc2n1` [Example 77, 6-(((2-(2-Isopropylphenyl)furo[3,2-d]pyrimidin-4-yl)amino)methyl)-2-methyl-3,4-dihydroisoquinolin-1 (2H)-one], the IC50 was determined as 28 nM.
On to `CC(C)c1ccccc1-c1nc(NCc2ccc3c(c2)CCN(C(C)C)C3=O)c2occc2n1` [Example 78, 2-Isopropyl-6-(((2-(2-isopropylphenyl)furo[3,2-d]pyrimidin-4-yl)amino)methyl)-3,4-dihydroisoquinolin-1(2H)-one], for which the IC50 amounted to 6.4 nM.
For `CCOCCOc1ccc(CNc2nc(-c3ccccc3C(C)C)nc3ccoc23)cc1` [Example 79, N-(4-(2-Ethoxyethoxy)benzyl)-2-(2-isopropylphenyl)furo[3,2-d]pyrimidin-4-amine], the IC50 worked out at 4.5 nM.
Take `COC1CC(Oc2ccc(CNc3nc(-c4ccccc4C(C)C)nc4ccoc34)cc2)C1` (stereo not drawn) [Example 80, 2-(2-Isopropylphenyl)-N-(4-(3-methoxycyclobutoxy)benzyl)furo[3,2-d]pyrimidin-4-amine]: the IC50 was found to be 26 nM.
As for `CC(C)c1ccccc1-c1ncc(N2CCOCC2)c(NCc2ccc(-c3nc(C(F)(F)F)cn3C)cc2)n1` [Example 87, 2-(2-Isopropylphenyl)-N-(4-(1-methyl-4-(trifluoromethyl)-1H-imidazol-2-yl)benzyl)-5-morpholinopyrimidin-4-amine], the IC50 is 6.2 nM.
With `Cc1cc(C(F)(F)F)nn1-c1ccc(CNc2nc(-c3ccccc3C(C)C)ncc2O)cc1` [Example 90, 2-(2-Isopropylphenyl)-4-((4-(5-methyl-3-(trifluoromethyl)-1H-pyrazol-1-vl)benzyl)amino)pyrimidin-5-ol] the figure was 102 nM; with `COc1cnc(-c2c(OC)ncnc2C2CC2)nc1NCc1ccc2c(c1)CCN(C(C)C)C2=O` [Example 97, 6-(((4'-Cyclopropyl-5,6'-dimethoxy-[2,5'-bipyrimidin]-4-yl)amino)methyl)-2-isopropyl-3,4-dihydroisoquinolin-1(2H)-one], 263 nM.
Turning to `COc1ncnc(C2CC2)c1-c1ncc(OC(C)C)c(NCC23CCC(c4ccc(C(F)(F)F)cn4)(CC2)CC3)n1` [Example 112, 4'-Cyclopropyl-5-isopropoxy-6'-methoxy-N-((4-(5-(trifluoromethyl)pyridin-2-yl)bicyclo[2.2.2]octan-1-yl)methyl)-[2,5'-bipyrimidin]-4-amine], the IC50 was 266 nM.
As to `COc1ncnc(C2CC2)c1-c1nc(NCc2ccc3c(c2)CCN(C)C3=O)c2occc2n1` [Example 114, 6-(((2-(4-Cyclopropyl-6-methoxypyrimidin-5-yl)furo[3,2-d]pyrimidin-4-yl)amino)methyl)-2-methyl-3,4-dihydroisoquinolin-1(2H)-one], the IC50 is 648 nM.
`COc1ncnc(C2CC2)c1-c1nc(NCc2ccc3c(c2)CCN(C(C)C)C3=O)c2occc2n1` [Example 115, 6-(((2-(4-Cyclopropyl-6-methoxypyrimidin-5-yl)furo[3,2-d]pyrimidin-4-yl)amino)methyl)-2-isopropyl-3,4-dihydroisoquinolin-1(2H)-one]: the IC50 was found to be 77 nM.
For `COc1ncnc(C2CC2)c1-c1nc(NCc2ccc(OC3CC(OC)C3)cc2)c2occc2n1` (stereo not drawn) [Example 118, 2-(4-Cyclopropyl-6-methoxypyrimidin-5-yl)-N-(4-(3-methoxycyclobutoxy)benzyl)furo[3,2-d]pyrimidin-4-amine], the IC50 worked out at 58 nM.
With `COc1cnc(-c2c(OC)ncnc2C2CC2)nc1N(Cc1ccc(-c2nc(C(F)(F)F)cn2C)cc1)C1CCOC1` (stereo not drawn) [Example 140, 4'-Cyclopropyl-5,6'-dimethoxy-N-(4-(1-methyl-4-(trifluoromethyl)-1H-imidazol-2-yl)benzyl)-N-(tetrahydrofuran-3-yl)-[2,5'-bipyrimidin]-4-amine], the IC50 turned out to be 73 nM.
Turning to `COc1cnc(-c2cccc3ccn(C)c23)nc1NCc1ccc(-c2nc(C(F)(F)F)cn2C)cc1` [Example 143, 5-Methoxy-2-(1-methyl-1H-indol-7-yl)-N-(4-(1-methyl-4-(trifluoromethyl)-1H-imidazol-2-yl)benzyl)pyrimidin-4-amine], the IC50 is 31 nM.
With `COc1cnc(-c2cccc3ccn(C)c23)nc1NCc1ccc(-n2nc(C(F)(F)F)cc2C)cc1` [Example 144, 5-Methoxy-2-(1-methyl-1H-indol-7-yl)-N-(4-(5-methyl-3-(trifluoromethyl)-1H-pyrazol-1-yl)benzyl)pyrimidin-4-amine] the figure was 68.6 nM; with `COc1cnc(-c2cccc3c2N(C)CC3)nc1NCc1ccc(-n2nc(C(F)(F)F)cc2C)cc1` [Example 146], 18 nM.
